Test results from PMC3021692, “Synthesis and Pharmacological Evaluation of Novel Schiff Base Analogues of 3-(4-amino) Phenylimino) 5-fluoroindolin-2-one” (Journal of Young Pharmacists : JYP, 2010).
“Also recorded” adds a separate entry of the source.

Assays:
Format in all cases: in vivo
[1] = system: Albino rats of Wistar strain; test: Evaluation of ulcerogenicity index (pylorus ligation); design: scale not given here; details: mean ± SD (n = 6)
Procedure: The synthesized compounds were evaluated for analgesic, anti-inflammatory, and ulcerogenic index. […] The test compounds and the standard drugs were administered in the form of a suspension (1% carboxymethyl cellulose as a vehicle) by oral route for analgesic and anti-inflammatory but for ulcerogenicity studies by intraperitoneally as suspension in 10% v/v Tween-20. Each group consisted of six animals. The animals were procured from the C. L. Baid Metha College of pharmacy, Chennai, and were maintained in colony cages at 25 ±2°C, relative humidity of 45-55%, under a 12-h light and dark cycle; they were fed standard animal feed. All the animals were acclimatized for a week before use. The Institutional Animal Ethics Committee approved the protocol adopted for the experimentation of animals. Ulceration in rats was induced as described by Goyal et al. Albino rats of Wistar strain weighing 150-200 g of either sex were divided into various groups each of six animals.[16] Control group of animals was administered only with 10% v/v Tween 80 suspension intraperitonially. One group was administered with aspirin (German Remedies) intraperitoneally at a dose of 200 mg/kg once daily for 3 days. The remaining group of animals was administered with test compounds intraperitoneally at a dose of 20 mg/kg. On fourth day, Pylorus was ligated as per the method of Shay et al.[17] Animals were fasted for 36 h before the pylorus ligation procedure. Four hours after the ligation, animals were sacrificed. The stomach was removed and opened along with the greater curvature. Ulcer index was determined by the method of Ganguly and Bhatnagar.[18]

[2] = system: carrageenan-induced paw edema in rats; test: Anti-inflammatory activity, carrageenan-induced paw edema test; details: for Percent anti-inflammatory activity (percent inhibition of paw edema): mean ± SD (n = 6)
Procedure: (§1) The synthesized compounds were evaluated for analgesic, anti-inflammatory, and ulcerogenic index. […] The test compounds and the standard drugs were administered in the form of a suspension (1% carboxymethyl cellulose as a vehicle) by oral route for analgesic and anti-inflammatory but for ulcerogenicity studies by intraperitoneally as suspension in 10% v/v Tween-20. Each group consisted of six animals. The animals were procured from the C. L. Baid Metha College of pharmacy, Chennai, and were maintained in colony cages at 25 ±2°C, relative humidity of 45-55%, under a 12-h light and dark cycle; they were fed standard animal feed. All the animals were acclimatized for a week before use. The Institutional Animal Ethics Committee approved the protocol adopted for the experimentation of animals.
Anti-inflammatory activity was evaluated by carrageenan-induced paw edema test in rats.[15] Diclofenac sodium 10, 20 mg/kg was administered as a standard drug for comparison. The test compounds were administered at two dose levels (10 mg/kg, 20 mg/kg). The paw volumes were measured using the mercury displacement technique with the help of a plethysmograph (Model PLYAN; Buxco, USA) immediately before and 30 min, 1, 2, and 3 h after carrageenan injection. The percent inhibition of paw edema was calculated using the following formula.
Percent inhibition I = 100 1− (a−x) / (b−y)
Where x is the mean paw volume of rats before the administration of carrageenan and test compounds or reference compound (test group), a is the mean paw volume of rats after the administration of carrageenan in the test group (drug treated), b is the mean paw volume of rats after the administration of carrageenan in the control group, y is the mean paw volume of rats before the administration of carrageenan in the control group.

Wistar albino mice = test: Analgesic activity, tail-flick technique; details: for Percent analgesic activity: mean ± SD (n = 6); for Analgesic activity (in words): tail-flick, structure-activity comparison within the series / vs diclofenac sodium
Procedure: as §1
The analgesic activity was performed by tail-flick technique using Wistar albino mice (25-35 g) of either sex selected by the random sampling technique.[1314] Diclofenac sodium at a dose level of 10 mg/kg and 20 mg/kg was administered orally as reference drug for comparison. The test compounds at two dose levels (10, 20 mg/kg) were administered orally. The reaction time was recorded at 30 min, 1, 2, and 3 h after the treatment, and cut-off time was 10 s. The percent analgesic activity (PAA) was calculated by the following formula, where T1 is the reaction time (s) before treatment, and T2 is the reaction time (s) after treatment.

[3] = 10 mg/kg oral, 30 min after carrageenan
[4] = 10 mg/kg oral, 1 h after carrageenan
[5] = 10 mg/kg oral, 2 h after carrageenan
[6] = 10 mg/kg oral, 3 h after carrageenan
[7] = 20 mg/kg oral, 30 min after carrageenan
[8] = 20 mg/kg oral, 1 h after carrageenan
[9] = 20 mg/kg oral, 2 h after carrageenan
[10] = 20 mg/kg oral, 3 h after carrageenan
[11] = 10 mg/kg oral, 30 min after treatment
[12] = 10 mg/kg oral, 1 h after treatment
[13] = 10 mg/kg oral, 2 h after treatment
[14] = 10 mg/kg oral, 3 h after treatment
[15] = 20 mg/kg oral, 30 min after treatment
[16] = 20 mg/kg oral, 1 h after treatment
[17] = 20 mg/kg oral, 2 h after treatment
[18] = 20 mg/kg oral, 3 h after treatment
[19] = test compounds 20 mg/kg intraperitoneally, pylorus ligated on fourth day

| SMILES | Ulcer index ([1]; diclofenac reference, dose not given) | Percent anti-inflammatory activity (percent inhibition of paw edema) [2, 3] | Percent anti-inflammatory activity (percent inhibition of paw edema) [2, 4] | Percent anti-inflammatory activity (percent inhibition of paw edema) [2, 5] | Percent anti-inflammatory activity (percent inhibition of paw edema) [2, 6] | Percent anti-inflammatory activity (percent inhibition of paw edema) [2, 7] | Percent anti-inflammatory activity (percent inhibition of paw edema) [2, 8] | Percent anti-inflammatory activity (percent inhibition of paw edema) [2, 9] | Percent anti-inflammatory activity (percent inhibition of paw edema) [2, 10] | Percent analgesic activity (Wistar albino mice; [11]) | Percent analgesic activity (Wistar albino mice; [12]) | Percent analgesic activity (Wistar albino mice; [13]) | Percent analgesic activity (Wistar albino mice; [14]) | Percent analgesic activity (Wistar albino mice; [15]) | Percent analgesic activity (Wistar albino mice; [16]) | Percent analgesic activity (Wistar albino mice; [17]) | Percent analgesic activity (Wistar albino mice; [18]) | Ulcer index [1, 19] | Anti-inflammatory activity compared to reference standard diclofenac sodium (in words) ([2]; carrageenan-induced paw edema in rats) | Analgesic activity (in words) (Wistar albino mice) |
| --- | --- | --- | --- | --- | --- | --- | --- | --- | --- | --- | --- | --- | --- | --- | --- | --- | --- | --- | --- | --- |
| O=C(O)Cc1ccccc1Nc1c(Cl)cccc1Cl [Diclofenac, Diclofenac sodium, reference compound] | 1.65 ± 0.48 | 32 ± 0.69 % | 38 ± 1.42 % | 39 ± 1.97 % | 33 ± 0.93 % | 45 ± 1.65 % | 52 ± 0.96 % | 60 ± 1.52 % | 39 ± 1.13 % | 37 ± 1.69 % | 43 ± 1.42 % | 45 ± 0.92 % | 33 ± 0.96 % | 46 ± 0.95 % | 55 ± 1.16 % | 62 ± 1.49 % | 39 ± 1.13 % |  |  |  |
| CCC(CC)=Nc1ccc(N=C2C(=O)Nc3ccc(F)cc32)cc1 [Compound N2] |  | 42 ± 1.25 % | 50 ± 1.38 % | 53 ± 1.15 % | 45 ± 1.68 % | 51 ± 1.44 % | 57 ± 1.72 % | 62 ± 1.26 % | 54 ± 1.67 % | 50 ± 1.25 % | 56 ± 1.32 % | 60 ± 1.15 % | 45 ± 1.68 % | 57 ± 1.44 % | 60 ± 1.90 % | 64 ± 1.26 % | 50 ± 1.67 % | 0.97 ± 1.53 | equipotent |  |
| O=C1Nc2ccc(F)cc2C1=Nc1ccc(N=C2CCCCC2)cc1 [Compound N4] |  | 38 ± 1.82 % | 50 ± 1.24 % | 55 ± 1.15 % | 35 ± 1.76 % | 45 ± 1.36 % | 56 ± 1.83 % | 60 ± 1.19 % | 44 ± 1.65 % | 48 ± 1.28 % | 52 ± 1.52 % | 54 ± 1.15 % | 35 ± 1.76 % | 55 ± 1.36 % | 57 ± 1.66 % | 59 ± 1.19 % | 44 ± 1.65 % | 0.89 ± 1.26 |  | moderate decrease in activity |
| COc1ccc(C=Nc2ccc(N=C3C(=O)Nc4ccc(F)cc43)cc2)cc1 [Compound N7] |  | 36 ± 1.74 % | 42 ± 1.72 % | 45 ± 1.55 % | 33 ± 1.69 % | 44 ± 1.76 % | 55 ± 1.78 % | 58 ± 1.66 % | 41 ± 1.48 % | 34 ± 1.74 % | 43 ± 1.72 % | 45 ± 1.45 % | 29 ± 1.69 % | 47 ± 1.96 % | 52 ± 1.67 % | 56 ± 1.36 % | 44 ± 1.48 % | 0.78 ± 1.19 |  | decreasing activity; also recorded: further decrease of activity |
| CC(=Nc1ccc(N=C2C(=O)Nc3ccc(F)cc32)cc1)c1ccccc1 [Compound N5] |  | 39 ± 1.56 % | 46 ± 1.88 % | 52 ± 1.65 % | 32 ± 1.26 % | 45 ± 1.73 % | 54 ± 1.95 % | 59 ± 1.36 % | 42 ± 1.48 % | 44 ± 1.76 % | 49 ± 1.88 % | 52 ± 1.55 % | 32 ± 1.26 % | 52 ± 1.33 % | 55 ± 1.95 % | 59 ± 1.36 % | 42 ± 1.48 % | 0.82 ± 1.32 |  | moderate decrease in activity |
